According to patent US10588982B2, “Site-specific covalent chemical ligation to monoclonal and polyclonal immunoglobulin” (The Regents of the University of California, priority 2015, dated 2020):

Experiments:
trastuzumab = experiment: Confirmation screen on TentaGel beads, crosslinked trastuzumab detected with anti-human IgG Cy3; conditions: DNFB reacted with methylamine or methylpypridine prior to staining
Excerpt: Approximately 100,000 library beads were immobilized onto 30 mm polystyrene dishes by using a series of 90% DMF washes. Beads were then washed and swelled in PBS. Nonspecific binding was inhibited with blocking buffer (0.1% BSA, 0.1% Tween, and 0.05% sodium azide) for one hour in room temperature. […] Excess antibody was removed, and beads were gently washed with PBS. To facilitate crosslinking of DNDFB to the antibody of the peptide library, we raised the pH to 8.5 for one hour. After crosslinking, beads were washed sequentially with PBS, 1.00 mM pH 3 glycine, and then pH 8 TBS. Anti-human IgG-alkaline phosphatase conjugate was then added at 1:1000 dilution. After washing, beads were then developed using BCIP (5-bromo-4-chloro-3′-indolyphosphate p-toluidine salt) solution. (NBT (nitro-blue tetrazolium chloride) was not used due to high background staining with TentaGel library beads.) Using a dissecting microscope, plates were imaged and positive beads were isolated. The isolated beads were then treated with 8M guanidine/HCl to remove all non-covalently linked proteins. The beads were further washed with PBS and water. […]
In the confirmation studies, hits were synthesized on TentaGel. Staining steps were the same except 1:30 anti-human IgG conjugated to Cy3 was used to allow for fluorescence quantification. […] Bead intensity was measured and quantified using Image J. […]

SKOV3 = experiment: In vitro T cell killing assay by flow cytometry; type: cell-based; conditions: with activated T cells
Procedure: FIG. 30. Depicts results of an in vitro T cell killing assay monitored and quantified by flow cytometry.
In vitro cytotoxicity assays were performed to analyze the effect of the NMDS-LYX30 bi-functional immunoconjugate on T cell targeting of an α3β1 integrin expressing target cell. Target cells (SKOV3) were labeled with GFP. The labeled target cells were plated in 6-well plates at 30000 cells per well and allowed to adhere overnight at 37° C. in a humidified atmosphere of 5% CO2. PBMCs were isolated from healthy volunteer donor and activated with anti-CD3, anti-CD28 (1 ug/ml) for 72 hours prior to co-incubation with target cells. The activated PBMCs were co-cultured with target cells at E:T=10:1 ratio for 12 hours at 37° C. in a humidified atmosphere of 5% CO2 with or without 100 ng/ml immunoconjugates contained medium. At the end of the incubation, the cells were lifted by trypsin and collected from the plate. The cells were resuspended in equal volume of PBS containing 2% FBS, 1 mmol/L EDTA, Propidium iodine (PI) and Annexin V-APC for 15 minutes. The fluorescent intensity of GFP, PI and APC were recorded by a FACs machine. 10000 events of target cells were recorded by gating GFP positive channel. The percentage of live/dead cells was calculated by the different cell population containing different amount of annexin V or PI. […] The results are depicted in FIG. 30.

Substance | decrease in fluorescent intensity (trastuzumab) [%] | target cell killing (SKOV3)
indole-butyrate-Lys(DNFB)-Asp-Ser linker [DS affinity element] | 50 | 
nivolumab: anti-PD-1 checkpoint inhibitor antibody |  | increased target cell killing
